According to US7915282B2, “C2-phenyl-substituted cyclic keto-enols used as pesticides and herbicides” (Bayer Aktiengesellschaft, priority 2000, dated 2011):

Legend:
Assay type in all cases: in vivo
[1] = tested on: Digitaria; test: Post-emergence test; details: after three weeks
Method: (§1) [table] To produce a suitable preparation of active compound, 1 part by weight of active compound is mixed with the stated amount of solvent, the stated amount of emulsifier is added and the concentrate is diluted with water to the desired concentration. Test plants of a height of 5-15 cm are sprayed with the preparation of active compound such that the particular amounts of active compound desired are applied per unit area. The concentration of the spray liquor is chosen such that the particular amount of active compound desired is applied in 1000 l of water/ha. After three weeks, the degree of damage to the plants is rated in % damage in comparison to the development of the untreated control. The figures denote: [table]

[2] = tested on: Galium; test: Post-emergence test; details: 125 g ai/ha, after three weeks
Method: as §1

[3] = tested on: Setaria; test: Post-emergence test; details: after three weeks
Method: as §1

[4] = tested on: Sorghum; test: Post-emergence test; details: after three weeks
Method: as §1

[5] = tested on: Soya bean; test: Post-emergence test; details: 125 g ai/ha, after three weeks
Method: as §1

[6] = tested on: Alopecurus; test: Pre-emergence test; details: after three weeks
Method: (§2) [table] To produce a suitable preparation of active compound, 1 part by weight of active compound is mixed with the stated amount of solvent, the stated amount emulsifier is added and the concentrate is diluted with water to the desired concentration. Seeds of the test plants are sown in normal soil. After about 24 hours, the soil is sprayed with the preparation of active compound such that the particular amounts of active compound desired are applied per unit area. The concentration of the spray liquor is chosen such that the particular amounts of active compound desired are applied in 1000 l of water/ha. After three weeks, the degree of damage to the plants is rated in % damage in comparison to the development of the untreated controls. The figures denote: [table]

[7] = tested on: Chenopodium; test: Pre-emergence test; details: 60 g ai/ha, after three weeks
Method: as §2

[8] = tested on: Echinochloa; test: Pre-emergence test; details: 60 g ai/ha, after three weeks
Method: as §2

[9] = tested on: Lolium; test: Pre-emergence test; details: after three weeks
Method: as §2

[10] = tested on: Setaria; test: Pre-emergence test; details: after three weeks
Method: as §2

[11] = tested on: Soya bean; test: Pre-emergence test; details: after three weeks
Method: as §2

[12] = tested on: Wheat; test: Pre-emergence test; details: 60 g ai/ha, after three weeks
Method: as §2

[13] = tested on: greenhouse red spider mite (Tetranychus urticae); test: Tetranychus test (OP-resistant/dip treatment); details: active compound concentration of 1000 ppm; after 7 days; infested bean plants dipped
Method: [table] To produce a suitable preparation of active compound, 1 part by weight of active compound is mixed with the stated amounts of solvent and emulsifier, and the concentrate is diluted with emulsifier-containing water to the desired concentration. Bean plants (Phaseolus vulgaris) which are heavily infested by all stages of the greenhouse red spider mite (Tetranychus urticae) are dipped into a preparation of active compound of the desired concentration. After the desired period of time, the effect in % is determined. 100% means that all spider mites have been killed; 0% means that none of the spider mites have been killed.

[14] = tested on: white fly Bemisia tabaci; test: Bemisia test; details: active compound concentration of 1000 ppm; after 10 days; infested cotton plants dipped
Method: [table] To produce a suitable preparation of active compound, 1 part by weight of active compound is mixed with the stated amounts of solvent and emulsifier, and the concentrate is diluted with emulsifier-containing water to the desired concentrations. Cotton plants (Gossypium hirsutum) which are infested by eggs, larvae and pupae of the white fly Bemisia tabaci are dipped into a preparation of active compound of the desired concentration. After the desired period of time, the kill in % is determined. 100% means that all animals have been killed; 0% means that none of the animals have been killed.

[15] = tested on: Cassia; test: Post-emergence test; details: 125 g ai/ha, after three weeks
Method: as §1

[16] = tested on: Lolium; test: Post-emergence test; details: after three weeks
Method: as §1

[17] = tested on: Solanum; test: Post-emergence test; details: 125 g ai/ha, after three weeks
Method: as §1

[18] = tested on: Viola; test: Post-emergence test; details: 125 g ai/ha, after three weeks
Method: as §1

[19] = tested on: Wheat; test: Post-emergence test; details: after three weeks
Method: as §1

[20] = tested on: green rice leaf hopper (Nephotettix cincticeps); test: Nephotettix test; details: active compound concentration of 1000 ppm; after 6 days; rice seedlings dipped
Method: [table] To produce a suitable preparation of active compound, 1 part by weight of active compound is mixed with the stated amounts of solvent and emulsifier, and the concentrate is diluted with emulsifier-containing, water to the desired concentration. Rice seedlings (Oryza sativa) are treated by being dipped into the preparation of active compound of the desired concentrated and are populated with the green rice leaf hopper (Nephotettix cincticeps) while the leaves are still moist. After the desired period of time, the kill in % is determined. 100% means that all leaf hoppers have been killed; 0% means that none of the leaf hoppers have been killed.

[21] = tested on: larvae of the mustard beetle (Phaedon cochleariae); test: Phaedon larvae test; details: active compound concentration of 1000 ppm; after 7 days; cabbage leaves dipped
Method: (§3) [table] To produce a suitable preparation of active compound, 1 part by weight of active compound is mixed with the stated amounts of solvent and emulsifier, and the concentrate is diluted with emulsifier-containing water to the desired concentration. Cabbage leaves (Brassica oleracea) are treated by being dipped into the preparation of active compound of the desired concentration and are populated with larvae of the mustard beetle (Phaedon cochleariae) while the leaves are still moist. After the desired period of time, the kill in % is determined. 100% means that all beetle larvae have been killed; 0% means that none of the beetle larvae have been killed.

[22] = tested on: Oilseed rape; test: Post-emergence test; details: 125 g ai/ha, after three weeks
Method: as §1

[23] = tested on: Sugar beet; test: Post-emergence test; details: after three weeks
Method: as §1

[24] = tested on: caterpillars of the army worm (Spodoptera frugiperda); test: Spodoptera frugiperda test; details: active compound concentration of 1000 ppm; after 7 days; cabbage leaves dipped
Method: as §3, with “caterpillars” for “larvae”, “army worm (Spodoptera frugiperda)” for “mustard beetle (Phaedon cochleariae)”, “caterpillars” for “beetle larvae”

[25] = tested on: caterpillars of the owlet moth (Plutella xylostella); test: Plutella test; details: active compound concentration of 1000 ppm; after 7 days; cabbage leaves dipped
Method: as §3, with “caterpillars” for “larvae”, “owlet moth (Plutella xylostella)” for “mustard beetle (Phaedon cochleariae)”, “caterpillars” for “beetle larvae”

[26] = tested on: Cotton; test: Post-emergence test; details: 60 g ai/ha, after three weeks
Method: as §1

[27] = tested on: Echinochloa; test: Post-emergence test; details: 60 g ai/ha, after three weeks
Method: as §1

[28] = tested on: Avena fatua; test: Pre-emergence test; details: after three weeks
Method: as §2

[29] = tested on: Bromus; test: Pre-emergence test; details: after three weeks
Method: as §2

[30] = tested on: Maize; test: Pre-emergence test; details: after three weeks
Method: as §2

[31] = tested on: Sugar beet; test: Pre-emergence test; details: after three weeks
Method: as §2

[32] = tested on: peach aphids (Myzus persicae); test: Myzus test; details: active compound concentration of 1000 ppm; after 6 days; infested cabbage leaves dipped
Method: as §3, with “oleracea) which are heavily infested by the peach aphids (Myzus persicae)” for “oleracea)”, “concentration.” for “concentration and are populated with larvae of the mustard beetle (Phaedon cochleariae) while the leaves are still moist.”, “aphids” for “beetle larvae”

[33] = tested on: Alopecurus; test: Post-emergence test; details: 60 g ai/ha, after three weeks
Method: as §1

[34] = tested on: Avena fatua; test: Post-emergence test; details: 60 g ai/ha, after three weeks
Method: as §1

SMILES | % damage Digitaria ([1]; 125 g ai/ha) | % damage Galium [2] | % damage Setaria ([3]; 125 g ai/ha) | % damage Sorghum ([4]; 125 g ai/ha) | % damage Alopecurus ([6]; 60 g ai/ha) | % damage Lolium ([9]; 60 g ai/ha) | % damage Setaria ([10]; 60 g ai/ha) | % damage Soya bean ([11]; 60 g ai/ha) | % damage Wheat [12] | kill in % [13] | kill in % [14] | % damage Lolium ([16]; 125 g ai/ha) | kill in % [20] | kill in % [21] | % damage Cotton [26] | % damage Sorghum ([4]; 60 g ai/ha) | other results
CCc1cc(CC)c(C2=C(O)C3(CCC(C)CC3)NC2=O)c(CC)c1 (centres unmarked) [Example I-1-a-5] | 90% | 80% | 100% | 95% | 100% | 100% | 100% | 0% | 0% | – | – | – | – | – | – | – | % damage Soya bean [5]: 10%; % damage Chenopodium [7]: 70%; % damage Echinochloa [8]: 100%
CCc1cc(C)cc(C)c1C1=C(OC(=O)C(C)(C)C)C2(CCC(OC)CC2)OC1=O (centres unmarked) [Example I-2-b-10] | – | – | – | – | – | – | – | – | – | 100% | 100% | 80% | – | – | – | – | % damage Cassia [15]: 95%; % damage Solanum [17]: 80%; % damage Viola [18]: 90%; % damage Wheat ([19]; 125 g ai/ha): 10%
CCc1cc(C)c(C2=C(O)C3(CCC(C)CC3)NC2=O)c(CC)c1 (centres unmarked) [Example I-1-a-2] | 80% | 80% | 95% | 80% | – | – | – | – | – | – | – | 70% | 100% | 100% | – | – | % damage Oilseed rape [22]: 0%; % damage Sugar beet ([23]; 125 g ai/ha): 0%
CCc1cc(C)cc(C)c1C1=C(O)C2(CCCCC2)OC1=O [Example I-2-a-3] | – | – | – | – | – | – | – | – | – | – | – | – | – | 100% | – | – | kill in % [24]: 100%
CCc1cc(C)cc(C)c1C1=C(O)C(C)(C)NC1=O [Example I-1-a-8] | – | – | – | – | 100% | 100% | 100% | 0% | 0% | – | – | – | 100% | – | 0% | 95% | kill in % [25]: 100%; % damage Digitaria ([1]; 60 g ai/ha): 95%; % damage Echinochloa [27]: 100%; % damage Setaria ([3]; 60 g ai/ha): 100%; % damage Sugar beet ([23]; 60 g ai/ha): 10%; % damage Avena fatua ([28]; 60 g ai/ha): 90%; % damage Bromus ([29]; 60 g ai/ha): 100%; % damage Maize ([30]; 60 g ai/ha): 10%; % damage Sugar beet ([31]; 60 g ai/ha): 0%
CCc1cc(C)cc(C)c1C1=C(O)C2(CCC(OC)CC2)OC1=O (centres unmarked) [Example I-2-a-4] | – | – | – | – | – | – | – | – | – | 100% | 100% | – | 100% | – | 0% | 80% | kill in % [32]: 100%; % damage Alopecurus [33]: 95%; % damage Avena fatua [34]: 80%; % damage Lolium ([16]; 60 g ai/ha): 95%; % damage Wheat ([19]; 60 g ai/ha): 0%; % damage Alopecurus ([6]; 125 g ai/ha): 100%; % damage Avena fatua ([28]; 125 g ai/ha): 80%; % damage Bromus ([29]; 125 g ai/ha): 70%; % damage Lolium ([9]; 125 g ai/ha): 100%; % damage Maize ([30]; 125 g ai/ha): 5%; % damage Setaria ([10]; 125 g ai/ha): 100%; % damage Soya bean ([11]; 125 g ai/ha): 0%; % damage Sugar beet ([31]; 125 g ai/ha): 0%
